How the values were obtained:
Experiment in all cases: KAM-matrix competition in K562 lysate;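 as to 0.001 uM KAM: median log10 fold change of treatment over DMSO control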;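 as to 0.01 uM KAM: median log10 fold change of treatment over DMSO control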;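 as to 0.1 uM KAM: median log10 fold change of treatment over DMSO control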;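 as to 1 uM KAM: median log10 fold change of treatment over DMSO control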;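 as to 10 uM KAM: median log10 fold change of treatment over DMSO control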
Assay type in all cases: binding
PTK2 = biological target: T1, PTK2 (Homo sapiens, UniProt Q05397)
T1 construct: endogenous in cells; host or cells: K562
Experimental: (§1) Supplement 12953_2017_125_MOESM1_ESM.zip/MS_Supp Info.xlsx, sheet "KAM" | column: 10 uM KAM; 1 uM KAM; 0.1 uM KAM; 0.01 uM KAM; 0.001 uM KAM; RB50

CDK16 = biological target: T2, CDK16 (Homo sapiens, UniProt Q00536)
T2 construct: endogenous in cells; host or cells: K562
Experimental: as §1

MAPK3 = biological target: T3, MAPK3 (Homo sapiens, UniProt P27361)
T3 construct: endogenous in cells; host or cells: K562
Experimental: as §1

RPS6KA1 = biological target: T4, RPS6KA1 (Homo sapiens, UniProt Q15418);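 as to 0.001 uM KAM: median log10 fold change of treatment over DMSO control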;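 as to 0.01 uM KAM: median log10 fold change of treatment over DMSO control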;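 as to 0.1 uM KAM: median log10 fold change of treatment over DMSO control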;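 as to 1 uM KAM: median log10 fold change of treatment over DMSO control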;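 as to 10 uM KAM: median log10 fold change of treatment over DMSO control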
T4 construct: endogenous in cells; host or cells: K562
Experimental: as §1

EPHB6 = biological target: T5, EPHB6 (Homo sapiens, UniProt O15197)
T5 construct: endogenous in cells; host or cells: K562
T5 sequence (O15197 32-1021): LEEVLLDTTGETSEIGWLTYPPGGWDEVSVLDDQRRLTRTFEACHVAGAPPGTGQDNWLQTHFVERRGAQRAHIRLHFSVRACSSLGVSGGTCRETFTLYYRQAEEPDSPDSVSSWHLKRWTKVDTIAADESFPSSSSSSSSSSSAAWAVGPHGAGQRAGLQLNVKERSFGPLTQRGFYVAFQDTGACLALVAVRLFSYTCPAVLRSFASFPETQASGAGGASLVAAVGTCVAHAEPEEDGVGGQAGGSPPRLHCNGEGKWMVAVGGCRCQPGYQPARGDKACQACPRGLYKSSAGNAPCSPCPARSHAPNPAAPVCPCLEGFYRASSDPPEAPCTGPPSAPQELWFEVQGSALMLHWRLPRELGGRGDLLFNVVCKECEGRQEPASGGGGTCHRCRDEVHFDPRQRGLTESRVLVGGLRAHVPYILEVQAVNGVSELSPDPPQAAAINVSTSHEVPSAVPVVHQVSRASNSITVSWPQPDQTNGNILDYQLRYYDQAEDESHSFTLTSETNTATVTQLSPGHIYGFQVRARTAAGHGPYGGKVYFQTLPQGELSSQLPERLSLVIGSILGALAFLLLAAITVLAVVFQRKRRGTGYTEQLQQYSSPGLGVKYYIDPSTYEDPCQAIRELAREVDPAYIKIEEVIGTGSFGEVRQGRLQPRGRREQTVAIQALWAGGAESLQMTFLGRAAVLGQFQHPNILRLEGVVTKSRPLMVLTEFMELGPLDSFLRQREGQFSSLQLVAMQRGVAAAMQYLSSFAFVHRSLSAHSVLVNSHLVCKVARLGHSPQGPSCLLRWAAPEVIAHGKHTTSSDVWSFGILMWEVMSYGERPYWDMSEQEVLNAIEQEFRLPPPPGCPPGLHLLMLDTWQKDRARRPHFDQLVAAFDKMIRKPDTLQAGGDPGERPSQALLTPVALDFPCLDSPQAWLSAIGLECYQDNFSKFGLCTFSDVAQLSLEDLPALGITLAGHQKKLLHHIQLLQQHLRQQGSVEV
Experimental: as §1

VRK1 = biological target: T6, VRK1 (Homo sapiens, UniProt Q99986);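 as to 0.001 uM KAM: median log10 fold change of treatment over DMSO control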;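 as to 0.01 uM KAM: median log10 fold change of treatment over DMSO control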;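 as to 0.1 uM KAM: median log10 fold change of treatment over DMSO control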;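 as to 1 uM KAM: median log10 fold change of treatment over DMSO control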;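 as to 10 uM KAM: median log10 fold change of treatment over DMSO control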
T6 construct: endogenous in cells; host or cells: K562
T6 sequence (Q99986 1-396): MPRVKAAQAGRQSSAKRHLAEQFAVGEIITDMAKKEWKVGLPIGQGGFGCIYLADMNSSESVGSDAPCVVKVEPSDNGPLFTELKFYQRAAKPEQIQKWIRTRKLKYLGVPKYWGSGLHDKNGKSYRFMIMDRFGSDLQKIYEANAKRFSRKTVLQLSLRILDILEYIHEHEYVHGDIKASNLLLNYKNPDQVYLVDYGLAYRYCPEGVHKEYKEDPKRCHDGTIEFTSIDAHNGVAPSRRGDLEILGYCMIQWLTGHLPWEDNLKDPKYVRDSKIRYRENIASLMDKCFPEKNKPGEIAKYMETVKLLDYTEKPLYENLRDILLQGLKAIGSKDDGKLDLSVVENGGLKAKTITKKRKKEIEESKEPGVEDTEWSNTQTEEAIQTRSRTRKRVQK
Experimental: as §1

RET = biological target: T7, RET (Homo sapiens, UniProt P07949)
T7 construct: endogenous in cells; host or cells: K562
Experimental: as §1

CLK2 = biological target: T8, CLK2 (Homo sapiens, UniProt P49760);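 as to 0.001 uM KAM: median log10 fold change of treatment over DMSO control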;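 as to 0.01 uM KAM: median log10 fold change of treatment over DMSO control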;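 as to 0.1 uM KAM: median log10 fold change of treatment over DMSO control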;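 as to 1 uM KAM: median log10 fold change of treatment over DMSO control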;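 as to 10 uM KAM: median log10 fold change of treatment over DMSO control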
T8 construct: endogenous in cells; host or cells: K562
Experimental: as §1

MYO3A = biological target: T9, MYO3A (Homo sapiens, UniProt Q8NEV4);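 as to 0.001 uM KAM: median log10 fold change of treatment over DMSO control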;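 as to 0.01 uM KAM: median log10 fold change of treatment over DMSO control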;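 as to 0.1 uM KAM: median log10 fold change of treatment over DMSO control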;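 as to 1 uM KAM: median log10 fold change of treatment over DMSO control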;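 as to 10 uM KAM: median log10 fold change of treatment over DMSO control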
T9 construct: endogenous in cells; host or cells: K562
Experimental: as §1

CDC7 = biological target: T10, CDC7 (Homo sapiens, UniProt O00311);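 as to 0.001 uM KAM: median log10 fold change of treatment over DMSO control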;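 as to 0.01 uM KAM: median log10 fold change of treatment over DMSO control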;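 as to 0.1 uM KAM: median log10 fold change of treatment over DMSO control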;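 as to 1 uM KAM: median log10 fold change of treatment over DMSO control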;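 as to 10 uM KAM: median log10 fold change of treatment over DMSO control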
T10 construct: endogenous in cells; host or cells: K562 lysate
Experimental: as §1

[1] = read-out: RB50 (the source's name)
[2] = KAM 0.001-10 uM, read-out: RB50 (the source's name)

## N#CCc1ccc(Nc2nc(NCCCN)cc(Nc3cc(C4CC4)[nH]n3)n2)cc1 [KAM]
PTK2; 0.001 uM KAM
  median Log10 fold change: 0.001005
PTK2; 0.01 uM KAM
  median Log10 fold change: -0.00785
PTK2; 0.1 uM KAM
  median Log10 fold change: -0.1794
PTK2; 1 uM KAM
  median Log10 fold change: -0.5062
PTK2; 10 uM KAM
  median Log10 fold change: -0.5675
PTK2; [1]
  IC50: 0.335 µM
CDK16; 0.001 uM KAM
  median Log10 fold change: 0.002002
CDK16; 0.01 uM KAM
  median Log10 fold change: 0.005918
CDK16; 0.1 uM KAM
  median Log10 fold change: -0.06683
CDK16; 1 uM KAM
  median Log10 fold change: -0.3041
CDK16; 10 uM KAM
  median Log10 fold change: -0.3301
CDK16; [1]
  IC50: 1.97 µM
MAPK3; 0.001 uM KAM
  median Log10 fold change: -0.06334
MAPK3; 0.01 uM KAM
  median Log10 fold change: -0.0563
MAPK3; 0.1 uM KAM
  median Log10 fold change: -0.1467
MAPK3; 1 uM KAM
  median Log10 fold change: -0.2435
MAPK3; 10 uM KAM
  median Log10 fold change: -0.361
MAPK3; [1]
  IC50: 2.36 µM
RPS6KA1; [2]
  IC50: > 10 µM
RPS6KA1; relative to 0 uM KAM = 0
  0.001 uM KAM: -0.05187
  0.01 uM KAM: 0.03804
  0.1 uM KAM: -0.06196
  1 uM KAM: -0.09025
  10 uM KAM: -0.1209
EPHB6; 0.001 uM KAM
  median Log10 fold change: -0.01655
EPHB6; 0.01 uM KAM
  median Log10 fold change: -0.02112
EPHB6; 0.1 uM KAM
  median Log10 fold change: -0.1129
EPHB6; 1 uM KAM
  median Log10 fold change: -0.2258
EPHB6; 10 uM KAM
  median Log10 fold change: -0.3985
EPHB6; [1]
  IC50: 2.51 µM
VRK1; [2]
  IC50: > 10 µM
VRK1; relative to 0 uM KAM = 0
  0.001 uM KAM: 0.05319
  0.01 uM KAM: 0.02372
  0.1 uM KAM: 0.08305
  1 uM KAM: 0.1248
  10 uM KAM: 0.03089
RET; 0.001 uM KAM
  median Log10 fold change: -0.129
RET; 0.01 uM KAM
  median Log10 fold change: -0.007083
RET; 0.1 uM KAM
  median Log10 fold change: -0.09548
RET; 1 uM KAM
  median Log10 fold change: -0.3474
RET; 10 uM KAM
  median Log10 fold change: -0.5381
RET; [1]
  IC50: 0.908 µM
CLK2; [2]
  IC50: > 10 µM
CLK2; relative to 0 uM KAM = 0
  0.001 uM KAM: -0.009153
  0.01 uM KAM: 0.05043
  0.1 uM KAM: -0.05281
  1 uM KAM: -0.09929
  10 uM KAM: -0.1362
MYO3A; [2]
  IC50: > 10 µM
MYO3A; relative to 0 uM KAM = 0
  0.001 uM KAM: -0.00983
  0.01 uM KAM: 0.0682
  0.1 uM KAM: 0.01204
  1 uM KAM: 0.07454
  10 uM KAM: -0.0706
CDC7; [2]
  IC50: > 10 µM
CDC7; relative to 0 uM KAM = 0
  0.001 uM KAM: -0.007298
  0.01 uM KAM: -0.03198
  0.1 uM KAM: -0.1182
  1 uM KAM: -0.2032
  10 uM KAM: -0.1853
